Assay results from the NIST ThermoML archive (doi:10.1016/j.jct.2008.04.013).
Several values for one entry are separate records, joined by “and”; a condition that tells them apart may be missing. Equal values may be shown once. Numbers after ± are expanded uncertainties.

Details: Liquid, Calculated from knudsen effusion weight loss

Cc1ccsc1C(=O)O [3-methyl-2-thiophenecarboxylic acid]
vapor or sublimation pressure (312.13 K): 0.000104 ± 5e-06 kPa and 0.000102 ± 5e-06 kPa | vapor or sublimation pressure (314.2 K): 0.000129 ± 6e-06 kPa and 0.00013 ± 7e-06 kPa and 0.000126 ± 6e-06 kPa | vapor or sublimation pressure (316.22 K): 0.000164 ± 8e-06 kPa and 0.000162 ± 8e-06 kPa and 0.000159 ± 8e-06 kPa | vapor or sublimation pressure (318.13 K): 0.000205 ± 1e-05 kPa and 0.000204 ± 1e-05 kPa and 0.000209 ± 1e-05 kPa | vapor or sublimation pressure (320.19 K): 0.000264 ± 1.3e-05 kPa and 0.000261 ± 1.3e-05 kPa and 0.000254 ± 1.3e-05 kPa | vapor or sublimation pressure (322.21 K): 0.000323 ± 1.6e-05 kPa and 0.00032 ± 1.6e-05 kPa and 0.000314 ± 1.6e-05 kPa | vapor or sublimation pressure (324.14 K): 0.000412 ± 2.1e-05 kPa and 0.000407 ± 2e-05 kPa and 0.000418 ± 2.1e-05 kPa | vapor or sublimation pressure (326.18 K): 0.000507 ± 2.5e-05 kPa and 0.000503 ± 2.5e-05 kPa | vapor or sublimation pressure (328.21 K): 0.000636 ± 3.2e-05 kPa and 0.00063 ± 3.2e-05 kPa | vapor or sublimation pressure (330.15 K): 0.000798 ± 4e-05 kPa and 0.000786 ± 3.9e-05 kPa and 0.000769 ± 3.9e-05 kPa | vapor or sublimation pressure (332.23 K): 0.000984 ± 4.9e-05 kPa and 0.000972 ± 4.9e-05 kPa and 0.00094 ± 4.7e-05 kPa | vapor or sublimation pressure (334.2 K): 0.001191 ± 0.00012 kPa and 0.001174 ± 0.00012 kPa and 0.001146 ± 0.00012 kPa

CC(=O)c1ccc(C(=O)O)s1 [5-acetyl-2-thiophenecarboxylic acid]
vapor or sublimation pressure (364.15 K): 0.00011 ± 6e-06 kPa and 0.000108 ± 5e-06 kPa and 0.000105 ± 5e-06 kPa | vapor or sublimation pressure (366.18 K): 0.000133 ± 7e-06 kPa and 0.000135 ± 7e-06 kPa and 0.000129 ± 6e-06 kPa | vapor or sublimation pressure (368.18 K): 0.000163 ± 8e-06 kPa and 0.00016 ± 8e-06 kPa | vapor or sublimation pressure (370.15 K): 0.000205 ± 1e-05 kPa and 0.0002 ± 1e-05 kPa and 0.000208 ± 1e-05 kPa | vapor or sublimation pressure (372.17 K): 0.000252 ± 1.3e-05 kPa and 0.00025 ± 1.3e-05 kPa and 0.000244 ± 1.2e-05 kPa | vapor or sublimation pressure (374.17 K): 0.000303 ± 1.5e-05 kPa and 0.000307 ± 1.5e-05 kPa and 0.000298 ± 1.5e-05 kPa | vapor or sublimation pressure (376.15 K): 0.000392 ± 2e-05 kPa and 0.000387 ± 1.9e-05 kPa and 0.000376 ± 1.9e-05 kPa | vapor or sublimation pressure (378.17 K): 0.000471 ± 2.4e-05 kPa and 0.000472 ± 2.4e-05 kPa and 0.000451 ± 2.3e-05 kPa | vapor or sublimation pressure (380.18 K): 0.000578 ± 2.9e-05 kPa and 0.000568 ± 2.8e-05 kPa and 0.000548 ± 2.7e-05 kPa | vapor or sublimation pressure (382.18 K): 0.000707 ± 3.5e-05 kPa and 0.000698 ± 3.5e-05 kPa and 0.000683 ± 3.4e-05 kPa | vapor or sublimation pressure (384.18 K): 0.000819 ± 4.1e-05 kPa and 0.000846 ± 4.2e-05 kPa and 0.000816 ± 4.1e-05 kPa | vapor or sublimation pressure (386.17 K): 0.001019 ± 0.0001 kPa and 0.001018 ± 0.0001 kPa and 0.000988 ± 4.9e-05 kPa

Cc1ccc(C(=O)O)s1 [5-methyl-2-thiophenecarboxylic acid]
vapor or sublimation pressure (316.29 K): 9e-05 ± 5e-06 kPa and 8.8e-05 ± 4e-06 kPa and 8.9e-05 ± 5e-06 kPa | vapor or sublimation pressure (318.25 K): 0.000113 ± 6e-06 kPa and 0.000112 ± 6e-06 kPa and 0.00011 ± 6e-06 kPa | vapor or sublimation pressure (320.12 K): 0.000139 ± 7e-06 kPa | vapor or sublimation pressure (322.28 K): 0.00018 ± 9e-06 kPa and 0.000183 ± 9e-06 kPa | vapor or sublimation pressure (324.24 K): 0.000229 ± 1.1e-05 kPa and 0.000226 ± 1.1e-05 kPa and 0.000222 ± 1.1e-05 kPa | vapor or sublimation pressure (326.12 K): 0.000273 ± 1.4e-05 kPa and 0.000278 ± 1.4e-05 kPa and 0.000276 ± 1.4e-05 kPa | vapor or sublimation pressure (328.28 K): 0.000341 ± 1.7e-05 kPa and 0.000356 ± 1.8e-05 kPa and 0.000355 ± 1.8e-05 kPa | vapor or sublimation pressure (330.22 K): 0.000441 ± 2.2e-05 kPa and 0.000439 ± 2.2e-05 kPa and 0.000427 ± 2.1e-05 kPa | vapor or sublimation pressure (332.11 K): 0.00054 ± 2.7e-05 kPa and 0.000539 ± 2.7e-05 kPa | vapor or sublimation pressure (334.28 K): 0.0007 ± 3.5e-05 kPa and 0.000697 ± 3.5e-05 kPa and 0.00069 ± 3.5e-05 kPa | vapor or sublimation pressure (336.22 K): 0.000859 ± 4.3e-05 kPa and 0.000855 ± 4.3e-05 kPa and 0.000843 ± 4.2e-05 kPa | vapor or sublimation pressure (338.11 K): 0.001049 ± 0.00011 kPa and 0.001053 ± 0.00011 kPa and 0.001028 ± 0.0001 kPa
